Patent US20230112418A1, “COMPOUND AND RADIOACTIVE LABELING COMPOUND” (NIHON MEDI-PHYSICS CO., LTD., priority 2020, published 2023)
Like-named read-outs stand apart in the source and are kept apart here.

Tests used:
CA-IX = target: T1, CA-IX (Homo sapiens, UniProt Q16790); experiment: Cell binding inhibition assay (acetazolamide as inhibitor, HT-29 cells); settings: read-out: IC50 (nM, mean ± SD)
T1 construct: HT-29 cells (CA-IX highly expressing cells, purchased from Sumitomo Dainippon Pharma Co., Ltd.); host or cells: HT-29 cells
Method: In this evaluation, binding properties of [^111In]IS-DO2A-ALB1 to DO2A-ALB4 and [^111In]DO3A-IS1 with respect to CA-IX were evaluated.
Specifically, HT-29 cells (CA-IX highly expressing cells, purchased from Sumitomo Dainippon Pharma Co., Ltd.) were seeded together with a medium at 4.0×10^5 cells/well in a 12 well plate, and cultured at 37° C. for 24 hours in an atmosphere of 5% carbon dioxide.
Subsequently, the medium was removed, and a medium containing any one of the radioactive labeled compounds of Examples 1 to 4 and Comparative Example 1 (37 kBq/mL) was added to each well in an amount of 1 mL such that the acetazolamide concentration was 50000 to 0.00512 nM as an inhibitor, and the sample was cultured at 37° C. for two hours in an atmosphere of 5% carbon dioxide. In addition, a sample containing the radioactive labeled compound and not containing acetazolamide was also cultured under similar conditions. The experiment was performed with each concentration group at n=6.
Subsequently, the medium was removed, the residue was washed with PBS (1 mL), and cells were lysed with a 1 N sodium hydroxide aqueous solution (200 μL×2) to obtain a cell lysate. Then, the amount of radioactivity in the cell lysate and that in the medium containing the radioactive labeled compound were each measured with a gamma counter (type name: Wallac 2470 Wizard manufactured by PerkinElmer, Massachusetts, U.S.A.). Separately from this, the total protein mass (mg protein) in the cell lysate was quantified by a BCA method. […] Results are illustrated in Table 2 below as mean±standard deviation (mean±SD).
That is, the […] the calculated value of IC50, the higher affinity between the radioactive labeled compound and CA-IX.

[1] = Distribution coefficient (1-octanol/PBS); type: physicochemical; settings: log10, 1-octanol/PBS pH 7.4, n=5
Method: The radioactive labeled compound (740 kBq) of any one of Examples and Comparative Examples was added to a mixed liquid of PBS (3 mL, pH 7.4 (20° C.)) and 1-octanol (3 mL), and the mixture was vortexed for two minutes and then centrifuged at 4000×g for five minutes. Thereafter, 1 mL of the 1-octanol layer and 500 μL of the PBS layer were collected, and the amount of radioactivity of each of the layers was measured with a gamma counter (n=5).
As a calculation formula of a distribution coefficient, “log10 [(amount of radioactivity of 1-octanol layer)/(amount of radioactivity of PBS layer×2)]” was used. Results are illustrated in Table 1 below as mean±standard deviation (mean±SD).
[^111In]In-PtDA (111 kBq) was added to a mixed liquid of PBS (pH 7.4, 3 mL) and 1-octanol (3 mL). The mixture was dispersed by vortexing for two minutes, and then centrifuged at 4000×g for five minutes. 1 mL of the 1-octanol layer and 1 mL of the PBS layer were collected, and the radioactivity of each of the layers was measured with a gamma counter (n=3).
As a calculation formula, “(distribution coefficient)=[…]) [(radioactivity of 1-octanol layer [kBq])/(radioactivity of PBS layer [kBq])]” was used.

[2] = test system: LNCaP tumor transplanted mice; experiment: Suppression of tumor growth by 225Ac-labeled compound; type: in vivo; settings: 20 kBq i.v., FIG. 9
Method: [^225Ac]Ac-PSMA-DA1 (20 kBq) or [^225Ac]Ac-PSMA-DB (20 kBq) obtained by the above-described method was dissolved in a 5% ethanol-containing acetate buffer (158 mM, pH 6.5, 100 μL), and the solution was injected into each of the LNCaP tumor transplanted mice via the tail vein thereof (n=6 or 5). As a control group, 100 μL of 5% ethanol-containing acetate buffer (158 mM, pH 6.5) was injected into each of the LNCaP tumor transplanted mice via the tail vein thereof (n=4).
After the injection of the ^225Ac-labeled compound, a tumor volume and a body weight were measured three times per week. The tumor volumes on the start day of injection of the ^225Ac-labeled compound were 75.3±26.0, 80.6±20.8, and 91.1±15.9 mm^3 in the [^225Ac]Ac-PSMA-DA1 injection group, the [^225Ac]Ac-PSMA-DB injection group, and the 5% ethanol-containing acetate buffer injection group, respectively.

[3] = IC50 of inhibitor acetazolamide against binding of the radioactive labeled compound to HT-29 cells, 2 h, larger value = higher affinity of labeled compound for CA-IX

Row | IC50 (CA-IX) [nM] | Distribution coefficient (mean ± SD) [1] | IC50 (CA-IX; [3]) [nM] | Structure (SMILES) | Course of tumor growth (in words) [2] | Decrease in body weight (in words) [2] | Tumor growth compared with control group (in words) [2]
1 | 127 ± 19.6 | −3.72 ± 0.05 |  | NS(=O)(=O)c1nn2cc(-c3ccc(NC(=O)CN4CCN(CC(=O)O)CCN(CC(=O)O)CCN(CC(=O)O)CC4)cc3)nc2s1 [[^111In]DO3A-IS1, metal not drawn] |  |  | 
2 |  | −2.16 ± 0.04 | 165 ± 60.6 | Cc1ccc(CCCC(=O)NCCCC[C@H](NC(=O)CN2CCN(CC(=O)O)CCN(CC(=O)Nc3ccc(-c4cn5nc(S(N)(=O)=O)sc5n4)cc3)CCN(CC(=O)O)CC2)C(=O)O)cc1.[111In+3] [[^111In]IS-DO2A-ALB2, [^111In] indium(III) (S)-2,2′-(4-(2-((1-carboxy-5-(4-(4-tolyl)butanamide)pentyl)amino)-2-oxoethyl)-10-(2-oxo-2-((4-(2-sulfamoylimidazo[2,1-b][1,3,4]thiadiazol-6-yl)phenyl)amino)ethyl)-1,4,7,10-tetraazacyclododecane-1,7-diyl) diacetic acid] |  |  | 
3 |  | −1.90 ± 0.01 | 288 ± 45.7 | NS(=O)(=O)c1nn2cc(-c3ccc(NC(=O)CN4CCN(CC(=O)O)CCN(CC(=O)N[C@@H](CCCCNC(=O)CCCc5ccc(Br)cc5)C(=O)O)CCN(CC(=O)O)CC4)cc3)nc2s1.[111In+3] [[^111In]IS-DO2A-ALB3] |  |  | 
4 |  | −2.36 ± 0.01 | 105 ± 8 | NS(=O)(=O)c1nn2cc(-c3ccc(NC(=O)CN4CCN(CC(=O)O)CCN(CC(=O)N[C@@H](CCCCNC(=O)CCCc5ccccc5)C(=O)O)CCN(CC(=O)O)CC4)cc3)nc2s1.[111In+3] [[^111In]IS-DO2A-ALB4, [^111In] indium(III) (S)-2,2′-(−(2-((1-carboxy-5-(4-phenylbutanamide)pentyl)amino)-2-oxoethyl)-10-(2-oxo-2-((4-(2-sulfamoylimidazo[2,1-b][1,3,4]thiadiazol-6-yl)phenyl)amino)ethyl)-1,4,7,10-tetraazacyclododecane-1,7-diyl) diacetic acid] |  |  | 
5 |  |  |  | O=C([O-])CN1CCN(C(CCC(=O)NCCCC[C@H](NC(=O)N[C@@H](CCC(=O)O)C(=O)O)C(=O)O)C(=O)[O-])CCN(CC(=O)[O-])CCN(C(CCC(=O)N[C@@H](CCCCNC(=O)CCCc2ccc(I)cc2)C(=O)O)C(=O)[O-])CC1.[225Ac+3] (stereo partly shown) [[^225Ac]Ac-PSMA-DA1] | the tumor hardly grew, and continuous growth suppression was observed up to six weeks after the injection | transient | tumor growth was significantly suppressed
6 |  |  |  | O=C([O-])CN1CCN(C(CCC(=O)NCCCC[C@H](NC(=O)N[C@@H](CCC(=O)O)C(=O)O)C(=O)O)C(=O)[O-])CCN(CC(=O)[O-])CCN(C(CCC(=O)Nc2ccccc2)C(=O)[O-])CC1.[225Ac+3] (stereo partly shown) [[^225Ac]Ac-PSMA-DB] |  | temporarily accelerated, but there was no sign of recovery thereafter | tumor growth was significantly suppressed
